“And” between values parts separate entries of the source, which are not always exact repeats. Equal values may be shown once. “Also recorded” adds a separate entry of the source.
Target: mitochondrial ceramidase (Rattus norvegicus, UniProt Q91XT9)
Experiment: mitochondrial ceramidase (mt-CDase) activity, radioactive assay or HPLC assay
Format: biochemical
Conditions: for effect on mt-CDase activity (in words): concentrations as stated at the place; for inhibition of mt-CDase activity: inhibitor at 0.6 mole %; for inhibition at 50 µM: read-out: inhibition (maximal inhibition) of mt-CDase activity; for IC50: substrate D-erythro-ceramide 50 μM; for IC50 (50% inhibition of mt-CDase activity): substrate D-erythro-ceramide 0.625 mole %; for extent of inhibition of ceramidase: sphingosine stereoisomers at higher concentrations (FIG. 4b); for increase in ceramide hydrolysis: tested at 0-5 mole % (0-400 μM), [3H]-C16-ceramide 0.625 mole %; for type of inhibition (double reciprocal analysis: Km increased, Vmax unchanged): varying D-erythro-ceramide concentration
Procedure: The enzymatic activity of mitochondrial ceramidase was determined by either one of the two following methods:
a. Radioactive assay: The mt-CDase activity was determined by measuring the release of radioactive fatty acid from tritiated ceramide ([^3H]-C16-Cer), labeled in the acyl chain. Briefly, organic solutions of ceramide and its analogues were initially mixed together, solvents were completely evaporated under nitrogen, then the dried lipids were dispersed in Triton-X 100 by sonication and vigorous vortexing. The reaction assay contained (in a final volume of 200 μl): enzyme (5-10 ng) and 10 nmoles of tritiated C16-ceramide (1×10^5 dpm) delivered in 100 μl of 1% Triton X-100 micelles in a glycine buffer pH 9.5 (200 mM).
b. HPLC-assay: The Mt-CDase activity was also determined by measuring the amount of sphingosine released. Basically the assay was initially the same as described above but using non-radioactive ceramide. The reaction was stopped with 800 μl of chloroform: methanol (2:1 v/v) mixture followed by the addition of phyto-sphingosine (0.5 nmoles) and dihydro-sphingosine (1 nmole) as internal standard and carrier, respectively. The reaction mix was then extracted with NaOH (50 μl, 1N), and the lower chloroform layer containing the sphingosine was further washed with water (100 μl) and dried. The released sphingosine was quantified as the ortho-phthaldehyde (OPA) derivatives as described (30). […] The solvent system was methyl alcohol: potassium phosphate buffer (5 mM), pH 7.0 (90:10 v/v) at a flow rate of 1 ml/min. […] Activity was determined relative to the phytosphingosine OPA peak.
The effects of various compounds of the invention which are stereochemical and structural analogues of ceramide and sphingosine on mt-CDase were investigated. […] Results were expressed as percent of the control ceramidase activity.

[1] = Table 1, ceramide analogues, hydrolysis of D-erythro-C16 or C18-ceramide at 0.625 mole % (50 μM)
[2] = Table 2, sphingosine analogues, hydrolysis of D-erythro-ceramide at 0.625 mole % (50 μM)
[3] = inhibitor at 0.625 mole % (50 μM)

Sequence of mitochondrial ceramidase (Q91XT9 whole entry): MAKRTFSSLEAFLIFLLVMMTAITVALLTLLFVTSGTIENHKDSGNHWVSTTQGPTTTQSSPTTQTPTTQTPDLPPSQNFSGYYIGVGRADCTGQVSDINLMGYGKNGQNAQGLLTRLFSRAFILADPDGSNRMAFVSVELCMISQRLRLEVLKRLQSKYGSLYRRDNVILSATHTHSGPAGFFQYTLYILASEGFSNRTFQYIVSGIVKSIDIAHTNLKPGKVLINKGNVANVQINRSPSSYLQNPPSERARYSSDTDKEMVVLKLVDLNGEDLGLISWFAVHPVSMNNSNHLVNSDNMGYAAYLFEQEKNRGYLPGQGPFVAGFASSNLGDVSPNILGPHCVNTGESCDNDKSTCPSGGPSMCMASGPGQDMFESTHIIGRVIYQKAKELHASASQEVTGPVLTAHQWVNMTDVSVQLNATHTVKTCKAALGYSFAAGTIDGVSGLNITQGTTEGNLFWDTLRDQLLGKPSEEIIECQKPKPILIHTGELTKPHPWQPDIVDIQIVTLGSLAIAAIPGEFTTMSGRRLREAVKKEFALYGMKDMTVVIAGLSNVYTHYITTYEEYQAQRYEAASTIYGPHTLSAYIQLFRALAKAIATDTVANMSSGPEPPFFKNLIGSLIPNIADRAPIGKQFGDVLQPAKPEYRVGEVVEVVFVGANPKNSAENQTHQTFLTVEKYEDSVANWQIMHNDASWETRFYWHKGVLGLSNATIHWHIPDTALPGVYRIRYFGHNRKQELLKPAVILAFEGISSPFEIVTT

## CCCCCCCCCCCCC/C=C/[C@@H](OC)[C@H](CO)NC(=O)CCCCCCCCCCCCCCC [3-O-Me-C16-Cer, 3-O-methyl-D-erythro-C16-ceramide]
[1]
  Estimated IC50 (mole %): no effect
Listed as 3-O-Me-ceramide
  effect on mt-CDase activity (in words): do not interact with the enzyme
Listed as 3-O-methyl ceramide
  effect on mt-CDase activity (in words): no effect

## CCCCCCCCCCCCC/C=C\[C@@H](O)[C@H](CO)NC(=O)CCCCCCCCCCCCCCC [cis-D-e-C16-Cer, cis-D-erythro-C16-ceramide]
[1]
  Estimated IC50 (mole %): no effect
  effect on mt-CDase activity (in words): no significant effect
Listed as cis D-erythro-ceramide
  effect on mt-CDase activity (in words): did not inhibit the enzyme
Listed as cis-D-e-ceramide
  effect on mt-CDase activity (in words): do not interact with the enzyme

## CCCCCCCCCCCCC/C=C/[C@@H](O)[C@@H](N)CO [D-e-Sph, D-erythro-sphingosine, reference compound]
[2]
  Estimated IC50 (mole %): 0.04 mole %
  inhibition of mt-CDase activity: totally inhibited
  IC50: 3.3 µM
  IC50 (50% inhibition of mt-CDase activity): 0.04 mole %
[3]
  inhibition at 50 µM: 98%

## CCCCCCCCCCCCC/C=C/[C@@H](O)[C@@H](CO)NC(=O)CCCCCCCCCCCCCCCCC [D-t-C18-Cer, D-threo-C18-ceramide]
[1]
  Estimated IC50 (mole %): 0.21 mole %
  IC50: 16.6 µM
  IC50 (50% inhibition of mt-CDase activity): 0.21 mole %

## CCCCCCCCCCCCC/C=C/[C@@H](O)[C@H](N)CO [D-t-Sph, D-threo-sphingosine]
[2]
  Estimated IC50 (mole %): 0.11 mole %
  extent of inhibition of ceramidase: 75%

## CCCCCCCCCCCCC/C=C/[C@@H](O)[C@@H](N)COP(=O)(O)O [Sph-1-P, D-erythro-sphingosine 1-phosphate]
[2]
  Estimated IC50 (mole %): activator
  increase in ceramide hydrolysis: 180%

## CCCCCCCCCCCCC/C=C/[C@@H](O)[C@H](CO)NC [N-Me-Sph, N-methyl-D-erythro-sphingosine]
FIG. 6a, concentration not stated directly
  inhibitory effect on mt-CDase: 75%
[2]
  Estimated IC50 (mole %): 0.13 mole %
  IC50 (50% inhibition of mt-CDase activity): 0.13 mole %

## CCCCCCCCCCCCC/C=C/[C@H](O)[C@H](CO)NC(=O)CCCCCCCCCCCCCCCCC [L-t-C18-Cer, L-threo-C18-ceramide]
[1]
  Estimated IC50 (mole %): 0.11 mole %
  IC50: 8.8 µM
  IC50 (50% inhibition of mt-CDase activity): 0.11 mole %

## CCCCCCCCCCCCC/C=C/[C@@H](O)[C@H](CO)NCCCCCCCCCCCCCCCCCC [Compound C18-Ceramine, N-stearyl-D-erythro-sphingosine]
[2]
  Estimated IC50 (mole %): 0.5 mole %
Inhibitor at 1.25 mole % (100 μM)
  inhibition at 100 µM: 75%
  type of inhibition (double reciprocal analysis: Km increased, Vmax unchanged): competitive inhibitor

## CCCCCCCCCCCCCCCC(=O)O [palmitic acid, reference compound]
  effect on mt-CDase activity (in words): no significant variation

## dihydroceramide [reference compound]
  hydrolysis by mt-CDase (substrate or not, in words): significant loss of activity as a substrate

## CCCCCCCCCCCCC/C=C/[C@H](O)[C@@H](CO)NC(=O)CCCCCCCCCCCCCCCCC [L-e-C18-Cer, L-erythro-C18-ceramide]
[1]
  Estimated IC50 (mole %): 0.26 mole %
  IC50: 20 µM
  IC50 (50% inhibition of mt-CDase activity): 0.26 mole %
  type of inhibition (double reciprocal analysis: Km increased, Vmax unchanged): competitive

## CCCCCCCCCCCCCC#C[C@@H](O)[C@@H](N)CO [D-e-deh-Sph, D-erythro-dehydrosphingosine]
[2]
  Estimated IC50 (mole %): 0.25 mole %
[3]
  inhibition at 50 µM: 75%
  IC50 (50% inhibition of mt-CDase activity): 0.25 mole %

## CCCCCCCCCCCCC/C=C/C(=O)[C@@H](N)CO [Compound 3-keto-Sph, 3-keto-sphingosine]
[2]
  Estimated IC50 (mole %): weak
  effect on mt-CDase activity (in words): weaker; also recorded: significant loss of inhibition
[3]
  inhibition at 50 µM: 35%

## CCCCCCCCCCCCC/C=C/[C@@H](OC)[C@@H](N)CO [Compound 3-O-Me-Sph, 3-O-methyl-D-erythro-sphingosine]
[2]
  Estimated IC50 (mole %): no effect
  inhibition of mt-CDase activity: no effect

## CCCCCCCCCCCCC/C=C/[C@@H](O)[C@H](CO)NC(=O)CCCCCCCCCCCCCCCCC [D-e-C18-Cer, D-erythro-C18-ceramide, reference compound]
[1]
  Estimated IC50 (mole %): substrate

## CCCCCCCCCCCCC/C=C/[C@@H](O)[C@H](CO)N(C)C [N,N-diMe-Sph, N,N-dimethyl-D-erythro-sphingosine]
[2]
  Estimated IC50 (mole %): weak
  effect on mt-CDase activity (in words): weaker; also recorded: profound loss of activity
Inhibitor at 2.5 mole %
  maximal inhibition of mt-CDase: 30%

## CCCCCCCCCCCCCCC[C@@H](O)[C@@H](N)CO [D-e-dh-Sph, D-erythro-dihydrosphingosine]
[2]
  Estimated IC50 (mole %): 0.34 mole %
  IC50 (50% inhibition of mt-CDase activity): 0.20 mole % and 0.34 mole %

## CCCCCCCCCCCCC/C=C/[C@H](O)[C@H](N)CO [L-e-Sph, L-erythro-sphingosine]
[2]
  Estimated IC50 (mole %): 0.09 mole %
  extent of inhibition of ceramidase: 98%

## CCCCCCCCCCCCC/C=C\[C@@H](O)[C@@H](N)CO [cis-D-e-Sph, cis-D-erythro-sphingosine]
[2]
  Estimated IC50 (mole %): weak
At higher concentrations, greater than 2 mole %
  maximal inhibition of ceramide hydrolysis: 32%
  effect on mt-CDase activity (in words): weaker; also recorded: no effect; also recorded: weak inhibitor
[3]
  inhibition at 50 µM: 10%

## CCCCCCCCCCCCCCCC(=O)C(N)CO (stereo not shown) [3-keto-dh-Sph, 3-keto-dihydrosphingosine]
[2]
  Estimated IC50 (mole %): 0.2 mole %
  effect on mt-CDase activity (in words): potent inhibitor
  IC50 (50% inhibition of mt-CDase activity): 0.34 mole %
[3]
  inhibition (maximal inhibition) of mt-CDase activity: 75%

## CCCCCCCCCCCCC/C=C/[C@@H](O)[C@H](CO)N(C)C(=O)CCCCCCCCCCCCCCC [N-Me-C16-Cer, N-methyl-D-erythro-C16-ceramide]
[1]
  Estimated IC50 (mole %): no effect
Listed as N-Me-Cer
  effect on mt-CDase activity (in words): loss of the interaction
Listed as N-Me-ceramide
  effect on mt-CDase activity (in words): do not interact with the enzyme
Listed as N-methyl-ceramide
  effect on mt-CDase activity (in words): did not affect ceramidase activity

## CCCCCCCCCCCCC/C=C/[C@@H](O)[C@H](COP(=O)(O)O)NC(=O)CCCCCCCCCCCCCCC [Cer-1-P, D-erythro-C16-ceramide-1-phosphate]
[1]
  Estimated IC50 (mole %): activator
  effect on mt-CDase activity (in words): do not interact with the enzyme
  increase in ceramide hydrolysis: 220%

## ceramide [reference compound]
Ceramide as substrate
  Km of hydrolysis: 1.3 mole %

## CCCCCCCCCCCCC/C=C/[C@H](O)[C@@H](N)CO [L-t-Sph, L-threo-sphingosine]
[2]
  Estimated IC50 (mole %): 0.14 mole %
  extent of inhibition of ceramidase: 60%

## CCCCCCCCCCCCCC#CC(=O)[C@@H](N)CO [3-keto-deh-Sph, 3-keto-dehydrosphingosine]
[2]
  Estimated IC50 (mole %): weak
  effect on mt-CDase activity (in words): weaker
[3]
  inhibition at 50 µM: 15%

## CCCCCCCCCCCCC/C=C/[C@@H](O)[C@H](COC)NC(=O)CCCCCCCCCCCCCCC [1-O-Me-C16-Cer, 1-O-methyl-D-erythro-C16-ceramide]
[1]
  Estimated IC50 (mole %): no effect
Listed as 1-O-Me-ceramide
  effect on mt-CDase activity (in words): do not interact with the enzyme
Listed as 1-O-methyl ceramide
  effect on mt-CDase activity (in words): no effect

## CCCCCCCCCCCCC/C=C/C(=O)[C@H](CO)NC(=O)CCCCCCCCCCCCCCC [3-keto-C16-Cer, 3-keto-C16-ceramide]
  hydrolysis by mt-CDase (substrate or not, in words): served as a substrate
  IC50 (50% inhibition of mt-CDase activity): 0.60 mole %
  type of inhibition (double reciprocal analysis: Km increased, Vmax unchanged): competitive substrate
[1]
  Estimated IC50 (mole %): 0.6 mole %
[3]
  inhibition at 50 µM: 53%

## CCCCCCCCCCCCC/C=C/[C@@H](O)[C@@H](N)COC [Compound 1-O-Me-Sph, 1-O-methyl-D-erythro-sphingosine]
[2]
  Estimated IC50 (mole %): weak
  effect on mt-CDase activity (in words): weaker
  inhibition of mt-CDase activity: ~25%
